A short description of series [1]: Tigecycline metabolites identified in CD-1 mouse serum and urine and rabbit serum samples (LC/MS). The format is in vivo. To be noted: in vivo, iv. On the procedure:
The column temperature was 25° C. The flow rate was 0.2 mL/min. […] Gradient 1 was used for metabolite identification (qualitative analysis).
LC/MS analysis was conducted on extracts of serum and from CD-1 mice and rabbits, and on urine from CD-1 mice. The mass spectral data for tigecycline and its metabolites are discussed below.

For series [2] the following is noted: following multiple administrations of tigecycline; cited from earlier work.
A short description of series [3]: LC/MS detection of tigecycline metabolites in CD-1 mouse serum and urine after intravenous tigecycline. To be noted: mouse, in vivo, iv, 5 mg/kg. On the procedure:
Fifteen male CD-1 mice, with an average weight of 31.3 g at the time of dosing, were used. Animals were given food and water ad libitum. Mice in the 0.5 and 2 hour blood collection groups were housed in standard cages, while those in the 4 hour blood collection group were housed in metabolism cages for the collection of urine. Mice were dosed by the Bioresources Department at Wyeth Research, Collegeville, Pa.
For mice and rabbits, the intravenous dosing solutions was prepared by dissolving 50 mg of tigecycline in 5.0 mL of 0.9% sterile saline solution to make a working stock solution. The working stock solution was diluted with 0.9% sterile saline solution to 0.5 mg/mL for mice and 4 mg/mL for rabbits. The mouse dose (5 mg/kg, 10 mL/kg) was administered as a bolus injection via the tail vein. The rabbit dose (4 mg/kg, 1 mL/kg) was administered as a bolus injection via the marginal vein of the ear.
For mice (n=5/time point), blood (approximately 0.7 mL) was collected by cardiac puncture at 0.5, 2 and 4 hours following administration of tigecycline. For rabbits, blood (approximately 7 mL) was collected via the ear vein at 0.5, 2 and 6 hours following the tigecycline dose. Serum was separated following clot formation at room temperature and centrifugation for 15 minutes at 4° C. and 3000 rpm. The serum was transferred to a fresh tube and was stored at approximately −70° C. until analysis as described below under “Serum Sample Preparation for LC/MS Analysis. In addition, urine was collected from mice in the 4 hour blood collection group and was stored at approximately −70° C. until analysis, as described below under “Urine Sample Preparation for LC/MS Analysis.”
Mouse urine was thawed and an aliquot (1 mL) transferred to a fresh tube. The sample was centrifuged at 14,000 rpm and room temperature for 10 minutes using a Model 5415C Eppendorf centrifuge (Brinkmann Instruments, Westbury, N.Y.) to remove any particulates. The sample was then transferred to a fresh tube and was analyzed by LC/MS, as described below under “Liquid Chromatography/Mass Spectrometry Analysis.”.
Mouse and rabbit serum samples were pooled at each collection time and analyzed for tigecycline, its epimer, tigecycline glucuronide (M7 and its epimer M6), 9-aminominocycline (M3) and N-acetyl-9-aminominocycline (M9 and its epimer M8). Aliquots of serum (500 μL) were transferred to new tubes and deuterated tigecycline (30 ng/mL final concentration) was added as an internal standard (quantitative analysis only). EDTA (40 μL of 0.5 M EDTA) was added to each sample and the samples vortex mixed. Acetonitrile (500 μL) was added to each sample, samples were vortex mixed and denatured protein separated by centrifugation at 14,000 rpm and room temperature for 10 minutes using a Model 5415C Eppendorf centrifuge (Brinkmann Instruments). The supernatant was transferred to a fresh tube and the solvent evaporated under a stream of nitrogen using a Turbovap Model LV evaporator (Caliper Life Sciences, Hopkinton, Mass.).
The HPLC system used for mass spectrometric analysis was a Waters Alliance Model 2695 HPLC system (Waters Corp., Milford, Mass.). It was equipped with a built-in autosampler and a Model 996 diode array UV detector. The UV detector was set to monitor 210-400 nm. Separations for metabolite characterization were accomplished on a Phenomenex Luna C18(2) column (150×2.1 mm, 5 μm) (Phenomenex, Torrance, Calif.) equipped with a Keystone Uniguard C18 guard column (10×2.1 mm) (Thermo Electron Corp., Bellefonte, Pa.). The column temperature was 25° C. The flow rate was 0.2 mL/min. Mobile phase A was 10 mM ammonium acetate in water and mobile phase B was acetonitrile.

A short description of series [4]: Mass balance: percent of [14C]tigecycline dose excreted in human urine and feces. On the procedure:
The concentration of tigecycline-related components in serum, urine and feces was calculated based on the total radioactivity concentrations reported elsewhere. These concentrations were converted to ng-tigecycline equivalents using the specific activity of the dose (1.00 μCi/mg). Using this value, the concentrations of the specific components were then estimated based on the distribution of radioactivity in the radiochromatograms.
An open-label, inpatient, multiple-dose tigecycline, single-dose [^14C]tigecycline metabolic disposition and mass balance study was performed in six healthy male volunteers. The clinical protocol called for twelve subjects. Of these twelve, six received the radioactive dose (subjects 1, 4, 5, 6, 7, and 8 with subject 8 later dropping out of the study.) Eligible subjects were selected based on inclusion/exclusion criteria, medical history, physical examination and additional procedures outlined in the study protocol. Each subject received a 100 mg loading dose on the morning of Day 1, followed by a 50 mg maintenance dose every 12 hours for an additional 5 doses. On the morning of study Day 4, six subjects received a single 50 mg dose of [^14C]tigecycline (50 μCi). Each tigecycline dose was administered via a 30-minute intravenous infusion.
Serum samples were collected for metabolite profiling prior to tigecycline dosing and 1, 4, 8, 24 and 48 hours following the [^14C]-labeled dose. For metabolite profiling, urine samples were collected at 0-4, 4-8, 8-24 and 24-48 hours and fecal samples were collected up to 48 hours following the [^14C]-labeled dose. Serum and urine samples, and fecal homogenates were shipped on dry ice to the Biotransformation Division of Drug Safety and Metabolism, Wyeth Research, Collegeville, Pa. The details of the sample collection and sample storage are described in the mass balance portion of the study. The 24-48 hour urine and fecal samples for subject #6 were incomplete since the subject withdrew from the study. While samples from this subject were used for metabolite profiling, the samples were not included in the mass balance calculations.

Series [5] is described as follows: Stability of [14C]tigecycline during extraction from control human fecal homogenates. In kind it is in vitro ADME. The text has this: Similar results were observed following the extraction of [^14C]tigecycline from control fecal homogenates. In these samples, [^14C]tigecycline accounted for 94% of the radioactivity prior to extraction and 68% following the extraction. There was a corresponding increase in the epimer of tigecycline, which represented 4% of the radioactivity prior to extraction and 23% following the extraction. […] Other minor products represented less than 1% of the radioactivity prior to the extraction and 4% following the extraction.
The stability of [^14C]tigecycline during the extraction process was determined in control human fecal homogenates spiked with [^14C]tigecycline at 5 μg/g of homogenate. […] Samples were extracted and analyzed by HPLC with radioactivity flow detection.

For series [6] the following is noted: dogs, cited from earlier work.
Series [7] is described as follows: Stability of [14C]tigecycline during extraction from control human serum. The format is in vitro ADME. The source says:
In serum samples, [^14C]tigecycline accounted for 94% of the radioactivity prior to spiking and extracting the samples. After the extraction process, the amount of [^14C]tigecycline had decreased 24% to 70% of the radioactivity. There was a corresponding increase in other radioactive components, mainly the epimer of tigecycline, which increased from 4% prior to extraction to 22% following the extraction. Other minor products, which included M3a, increased from 2% prior to extraction to 8% following the extraction.
Additional serum samples were prepared as descried above and extracted. This was done to determine the effects, if any, of the extraction process on the stability of [^14C]tigecycline. These samples were analyzed by HPLC with radioactivity flow detection, as described in example 6.

A short description of series [8]: Stability of [14C]tigecycline in control human serum incubated at 37° C. The settings on record: for percent radioactivity in spiked control serum: 37° C., 3 μg/mL. On the procedure: The stability of [^14C]tigecycline was examined in control serum incubated at 37° C. for up to 24 hours.
The stability of [^14C]tigecycline was determined in control human serum spiked with [^14C]tigecycline at 3 μg/mL and incubated at 37° C. […] Aliquots (500 μL) were removed at 0, 1, 4, 8 and 24 hours and placed into fresh vials. EDTA (40 μL of 0.5 M) was added and samples centrifuged at 14,000 rpm and room temperature for 10 min (Eppendorf centrifuge, Model 5415C). Supernatants were transferred to HPLC vials and analyzed by HPLC with radioactivity flow detection.

For series [9] the following is noted: rats, cited from earlier work.
Series [10] in a line: Stability of [14C]tigecycline in control human urine incubated at 37° C. To be noted: for percent of radioactivity in spiked control urine: 37° C., 5 μg/mL. On the procedure:
The stability of [^14C]tigecycline was determined in control human urine spiked with [^14C]tigecycline at 5 μg/mL and incubated at 37° C. […] Aliquots (500 μL) were removed at 0, 1, 4, 8 and 24 hours and placed into fresh vials. These urine samples were processed and analyzed as described for serum in control example 2.

We go through two compounds from US7534766B2, “Glucuronide metabolites and epimers thereof of tigecycline” (Wyeth, priority 2004, dated 2009).

Like-named read-outs stand apart in the source and are kept apart here.

As for `CC(=O)Nc1cc(N(C)C)c2c(c1O)C(=O)C1=C(O)C3(O)C(=O)C(C(N)=O)=C(O)C(N(C)C)C3CC1C2` (stereo not drawn) [Metabolite M9, N-acetyl-9-aminominocycline], the “Species and matrix in which identified” value in [1] was “R-S”. Further, the “concentrations previously reported in human serum” value in series [2] was 3 to 15 ng/mL. Also, the “observed in mouse urine by LC/MS” value in series [3] is “No M9 was observed”.

As to `CN(C)c1cc(N[14C](=O)CNC(C)(C)C)c(O)c2c1CC1CC3C(N(C)C)C(O)=C(C(N)=O)C(=O)C3(O)C(O)=C1C2=O` (stereo not drawn) [[^14C]tigecycline], the “radioactivity excreted in feces (mean)” value in series [4] (complete collection, n=3) is given as 58.6±4.4%. Further, the “radioactivity excreted in urine (mean)” value in [4] (complete collection, n=3) came to 33.2±1.9%. Also, in series [4] (first 48 hours, urine + feces), the “[14C]tigecycline dose recovered” value is “Approximately 50%”. The “Mean total recovery of radioactivity in human excreta” value in series [4] (urine + feces, n=3) stood at 91.8%. Besides, the “percent of the radioactivity, control fecal homogenates” value in series [5] (following the extraction) turned out to be 68%; in series [5] (prior to extraction, 5 μg/g of homogenate) it was 94%. The “single intravenous [14C]tigecycline dose recovered” value in [6] (including cage rinse) and in series [9] (including cage rinse) was “approximately 89%” in each case. The “dose recovered in feces” value in [6] was 47%; in series [9] it was 53%. Besides, the “dose recovered in urine” value is given as 36% in series [6] and 34% in series [9]. The “percent of the radioactivity, control serum” value was 70% in series [7] (after the extraction process); 94% in [7] (prior to spiking and extracting). Further, the “decrease in percent of the radioactivity, control serum” value in series [7] (during the extraction process) came out at 24%. Besides, the “percent radioactivity in spiked control serum” value in series [8] (0 hours) is 90%; in series [8] (24 hours) it was 81%. Moreover, in series [8] (over 24 hours at 37° C.), the “decrease in percent radioactivity in spiked control serum” value is given as “approximately 9%”. Also, the “percent of radioactivity in spiked control urine” value in series [10] (0 hours) was found to be 92%; in series [10] (24 hours) it was 74%. In [10] (0 to 24 hours at 37° C.), the “decrease in percent of radioactivity in spiked control urine” value came to 18%.
